Data on one compound can be found in EP4631931A1, “HDAC INHIBITOR AND USE THEREOF” (Wigen Biomedicine Technology (Shanghai) Co., Ltd., priority 2022, dated 2024).

The test system of one data set is Jurkat cell. Put plainly: Inhibition of Jurkat cell proliferation (CTG, intracellular ATP). Conditions: Homo sapiens, 72 h, compared to DMSO group, read-out: Inhibitory activity against Jurkat cell proliferation (IC50). It is filed as cell-based. As for the experimental part:
(§1) Jurkat or 293T cells were seeded into a 96-well plate at 3000 cells/well. After overnight adherence culture, the serially diluted compound in DMSO was added. After 72 h, the intracellular ATP level was determined by CTG. The IC50 for the inhibition of cell proliferation by the compounds was calculated compared to the DMSO group. Table 8. Inhibitory activity of compounds of the present disclosure against Jurkat/293T cell proliferation (IC50, µM)

A further data set has as its system 293T cell. Put plainly: Inhibition of 293T cell proliferation (CTG, intracellular ATP). It is filed as cell-based. The settings on record: Homo sapiens, HEK-293T, 72 h, compared to DMSO group, read-out: Inhibitory activity against 293T cell proliferation (IC50). As to the method:
as §1

The test system of another data set is HeLa cells. Description: Intracellular acetyl lysine / H3K 27 acetyl lysine level by ELISA. It is filed as cell-based. The settings on record: 24 h of treatment. As to the method: HeLa cells were seeded into a 96-well plate at 20000 cells/well. After overnight adherence culture, the serially diluted compound was added. After 24 h of treatment, intracellular levels of acetyl lysine and H3K 27 acetyl lysine were quantified by ELISA. Table 9. Effect of compound of the present disclosure on levels of acetyl lysine and H3K 27 acetyl lysine

The next data set has as its system OVCAR 3 cells. Description: NK cell-mediated tumor cell killing (NK92 cells, GFP count). It is filed as cell-based. The settings on record: Homo sapiens, 72 h compound, 1-4 h co-culture, compared to DMSO group, read-out: EC50 in promoting the NK92 cell-mediated OVCAR 3 cell death. As to the method: OVCAR 3 cells […] expressing GFP were seeded into a 96-well plate at 4000 cells/well. After overnight adherence culture, the serially diluted compounds were added, and the plate was incubated for another 72 h. After the two types of cells were mixed and cultured for another 1-4 h, NK92 cells were removed by washing with PBS, and adherent GFP-positive tumor cells were counted. The EC50 of the compounds in promoting the NK92 cell-mediated OVCAR 3 cell death was calculated compared to the DMSO group. Table 11. NK cell-mediated tumor cell killing by compounds of the present disclosure

The nature of data set [1]: Pharmacokinetic experiment in mice. It is filed as in vivo, CD-1 female mice. Conditions: female, CD-1, mouse, plasma. As for the experimental part: CD-1 female mice aged 7 to 10 weeks were intravenously administered and orally administered at doses of 1 mg/kg and 10 mg/kg, respectively. The mice were fasted for at least 12 h before the administration and given food 4 h after the administration, and they were given ad libitum access to water during the experiment.
On the day of the experiment, animals in the intravenous group were given the corresponding compound by single injection via the tail vein at an administration volume of 10 mL/kg; and animals in the oral group were given the corresponding compound by single intragastric injection at an administration volume of 10 mL/kg. The animals were weighed before administration, and the administration volume was calculated according to the body weight. The sample collection time points were 0.083 h, 0.167 h, 0.5 h, 1 h, 2 h, 4 h, 8 h, and 24 h. About 200 µL of whole blood was collected through the orbital venous plexus at each time point and used to prepare plasma for concentration determination by high-performance liquid chromatography-tandem mass spectrometry (LC-MS/MS). The plasma concentrations were processed using a non-compartmental model of Winnolin pharmacokinetic software, and the pharmacokinetic parameters were calculated using a linear-log trapezoidal method. Table 13. Results of in vivo pharmacokinetic evaluation of compounds of the present disclosure

The subject of data set [2] is Mouse colon cancer MC38 cells. Put plainly: In vivo efficacy in MC-38 model. On the set-up: species or system C57BL6N mice. The settings on record: small molecules 15mg/kg PO QD, PD-1 1mg/kg IV QW, BDO 2mg/kg IP QW, 21 days. As to the method: (§2) Female C57BL6N mice (aged 6 weeks, 18-22 g) were provided by Vital River Laboratory Animal Technology Co., Ltd. (China) and used one week after quarantine and acclimation. All animals were kept in a room at 23±2 °C with a relative humidity of 50±5%, artificial lighting was provided from 08:00 to 20:00 every day, and the air was exchanged 13-18 times per hour. Mouse colon cancer MC38 cells were cultured conventionally in 1640 medium containing 10% fetal bovine serum in an incubator at 37 °C with 5% CO2. After being subcultured, the cells were collected when they reached the desired amount. The C57BL6N mice were subcutaneously injected with 2 × 10^6 MC38 cells on the right side to form tumors. After the tumors grew to about 100 mm^3, the animals were randomly grouped for administration. Tumor volumes were measured with a caliper on day 3, day 7, day 10, day 14, day 17, and day 21 after the administration. […] The toxicity of the compounds was evaluated according to the body weight and state of the mice.
Table 15. In vivo efficacy of some of the compounds of the present disclosure in MC-38 model

Data set [3] concerns Mouse colon cancer CT-26 cells. Put plainly: In vivo efficacy in CT-26 model. On the set-up: species or system BALB/c mice. Conditions: small molecules 15mg/kg PO QD, PD-1 1mg/kg IV QW, BDO 2mg/kg IP QW, 21 days. As to the method: as §2, with “BALB/c” for “C57BL6N”, “CT-26” for “MC38”, “10^5 CT-26” for “10^6 MC38”
Table 16. In vivo efficacy of some of the compounds of the present disclosure in CT-26 model

The mark [4] stands for this setting: Injection (1 mg/kg), intravenous.

One may read the EC50 as the midpoint of the concentration-response curve. Broadly, the AUC(0-t) is exposure summed from dosing to a finite time, without extrapolation to infinity. A higher AUC(0-t) goes with high exposure. For orientation: clearance means the volume of plasma or blood freed of the substance per unit of time. Low readings indicate inefficient removal, high ones efficient removal. By half-life is commonly meant the time needed for the level to fall by half in the phase considered. A high value points to slow decline. As a reminder, the Cmax is the highest concentration seen after dosing. Usually Tmax stands for the time at which the peak concentration occurs. For orientation: bioavailability means dose-corrected exposure relative to a reference, in per cent. Turning to `[2H]c1cc(NC(=O)c2ccc(CNC(=O)/C=C/c3cccnc3)cc2)c(N)cc1F` [Compound 1, (E)-N-(2-amino-4-fluorophenyl-5-d)-4-((3-(pyridin-3-yl)acrylamido)methyl)benzamide], in the data set with Jurkat cell, the IC50 came out at 0.86 µM. For the same compound, the IC50 in the data set on 293T cell is greater than 10 µM. Further, in the data set with HeLa cells, the “Acetyl lysine Maximum (%)” value worked out at 430%, the “Acetyl lysine Minimum effective concentration” value was 16 nM, the “H3K 27 Acetyl lysine Maximum (%)” value turned out to be 360% and the “H3K 27 Acetyl lysine Minimum effective concentration” value is listed as 80 nM. The EC50 in the data set with OVCAR 3 cells is 0.0439 µM. In addition, in data set [1] (setting [4]), the AUC(0-t) was determined as 0.401 µg·h/mL, the clearance came to 2.49 L/h/kg and the half-life was 2.41 h. Moreover, the Vd in data set [1] (Injection (1 mg/kg), intravenous, read-out: Vdss) was 2.19 L/kg. In addition, in data set [1] (Oral administration (10 mg/kg)), the AUC(0-t) was 1.89 µg·h/mL, the Cmax is 3.45 µg/mL, the time of peak concentration (Tmax) turned out to be 4.8 min and the bioavailability was 45.3%. In addition, the half-life in data set [1] (Oral administration (10 mg/kg)) was 2.76 h. In addition, in data set [2], the “Change in body weight” value was “+17.6%”. For the same compound, the “TGI(%)” value in data set [2] (6 mice per group) was found to be 35.7%. Further, in data set [3], the “Change in body weight” value is on record as “+17.6%”. Moreover, in data set [3] (6 mice per group), the “TGI(%)” value stood at 35.7%.
